{"source": "patent US20130296267A1", "about": "“AGENT FOR INTRA-ARTICULAR INJECTION” (priority 2008, published 2013)", "assay": "microscopy of dexamethasone crystals in pure saline and in the innovation", "assay_type": "physicochemical", "conditions": "in phospholipid solution", "data": [{"smiles": "CC(=O)OCC(=O)[C@@]1(O)[C@H](C)C[C@H]2[C@@H]3CCC4=CC(=O)C=C[C@]4(C)[C@@]3(F)[C@@H](O)C[C@@]21C", "note": "[dexamethasone crystals, dexamethasone acetate]", "values": [{"measurement": "crystals after twelve hours", "setting": "after twelve hours", "result": "no longer detectable"}, {"measurement": "reduction of crystals", "setting": "within six hours", "result": 50, "unit": "%"}]}]}
